Laboratory results reported in US20130165464A1, “HETEROARYLS AND USES THEREOF” (MILLENNIUM PHARMACEUTICALS, INC., priority 2011, published 2013).

Target: T1, VPS34 (Homo sapiens, UniProt Q8NEB9)
T1 construct: GST (N); host or cells: SF9 insect cells (baculovirus)
Assay: Human VPS34 enzyme assay (Adapta TR-FRET)
Type: biochemical
Details: for inhibition at 1.11 µM: 1 h, at a 1.11 μM concentration, read-out: VPS34 Percent Inhibition
Method: VPS34 (accession number GB:BCO33004) was cloned into pDEST20-Thombin as N-terminal GST tagged fusion proteins using the Gateway system (Invitrogen, catalog#11804-013). The sequences were verified before recombinant protein expression using the Baculovirus Expression System with Gateway® Technology.
For expression VPS34 was infected at 1MOI in SF9 cells and harvested 72 hours post infection.
For purification, VPS34 is purified by Glutathione Sepharose 4 Fast Flow (GE Healthcare #17-5132-03) followed by HiTrap Q (GE Healthcare #17-1153-01).
Human VPS34 Enzyme Assay Method
100 nL compounds in DMSO are added to wells of a 384 well microtitre plate (Greiner 780076). At room temperature: 5 ul VPS34 reaction buffer (Invitrogen Assay Buffer Q (diluted 1 in 5 with nanopure water) plus 2 mM DTT and 2 mM MnCl2) containing ATP (20 uM, Promega) and 200 uM PI-PS substrate (Invitrogen PV5122) is added followed immediately by 5 ul VPS34 reaction buffer (as above) containing VPS34 (5 nM, Millennium Protein Sciences Group) and the mixture is incubated with shaking at room temperature for 1 hour. Then 5 ul VPS34 stop-detect mix (as per Invitrogen Adapta Assay kit (PV5009) instructions (contains kinase quench buffer, TR-FRET buffer, Adapta Eu anti-ADP antibody and Alexa Fluor 647 ADP tracer)) is added to quench the reaction. The plates are then incubated for 30 minutes at room temperature with shaking and then read on a BMG PheraStar Plus reader.
For the assay methods described above, test compound percent inhibition, at various concentrations, is calculated relative to control (DMSO and EDTA) treated samples. Compound concentration versus percent inhibition curves are fitted to generate IC50 values. One skilled in the art will appreciate that the values generated either as percentage inhibition at a single concentration or IC50 values are subject to experimental variation.

T1 sequence (Q8NEB9 whole entry): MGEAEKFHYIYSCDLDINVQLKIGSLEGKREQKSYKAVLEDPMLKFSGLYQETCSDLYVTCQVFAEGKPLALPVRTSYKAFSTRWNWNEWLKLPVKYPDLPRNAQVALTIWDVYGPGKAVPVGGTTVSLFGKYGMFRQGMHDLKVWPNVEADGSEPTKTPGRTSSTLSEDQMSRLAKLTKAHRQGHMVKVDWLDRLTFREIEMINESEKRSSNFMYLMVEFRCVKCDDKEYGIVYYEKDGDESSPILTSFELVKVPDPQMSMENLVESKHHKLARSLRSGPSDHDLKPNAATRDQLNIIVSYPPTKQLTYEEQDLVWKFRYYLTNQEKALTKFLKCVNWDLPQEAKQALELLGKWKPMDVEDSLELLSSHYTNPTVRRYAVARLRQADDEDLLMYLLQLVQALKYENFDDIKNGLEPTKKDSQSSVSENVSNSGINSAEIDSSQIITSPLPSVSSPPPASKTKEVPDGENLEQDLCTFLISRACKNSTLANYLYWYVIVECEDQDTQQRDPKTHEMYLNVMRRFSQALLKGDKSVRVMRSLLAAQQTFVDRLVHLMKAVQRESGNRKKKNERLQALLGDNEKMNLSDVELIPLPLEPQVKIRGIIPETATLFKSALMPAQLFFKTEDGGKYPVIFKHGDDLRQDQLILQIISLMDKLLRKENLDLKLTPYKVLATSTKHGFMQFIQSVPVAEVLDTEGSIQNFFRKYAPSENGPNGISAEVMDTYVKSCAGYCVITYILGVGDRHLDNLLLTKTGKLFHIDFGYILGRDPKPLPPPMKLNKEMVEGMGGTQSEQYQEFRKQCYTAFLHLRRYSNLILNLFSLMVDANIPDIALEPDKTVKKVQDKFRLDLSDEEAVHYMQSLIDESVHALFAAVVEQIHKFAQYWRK

Compound | inhibition at 1.11 µM | IC50
COCCOC(=O)Nc1cc(-n2cc(C(N)=O)c(-c3ccccc3Cl)c2)c(C)cn1 [I-54, 2-methoxyethyl {4-[3-carbamoyl-4-(2-chlorophenyl)-1H-pyrrol-1-yl]-5-methylpyridin-2-yl}carbamate] | > 99% | –
O=C(O)c1cn(-c2ccnc(NCCc3ccc(O)cc3)n2)nc1-c1ccccc1Cl [I-29, 3-(2-chlorophenyl)-1-(2-{[2-(4-hydroxyphenyl)ethyl]amino}pyrimidin-4-yl)-1H-pyrazole-4-carboxylic acid] | 44% | 1000 to 5000 nM
COC(=O)Nc1cc(-n2cc(-c3ncc[nH]3)c(-c3ccccc3Cl)n2)c(C)cn1 [I-64, methyl {4-[3-(2-chlorophenyl)-4-(1H-imidazol-2-yl)-1H-pyrazol-1-yl]-5-methylpyridin-2-yl}carbamate] | > 99% | < 50 nM
Cc1cnc(NC(=O)C(C)C)cc1-n1cc(C(N)=O)c(-c2ccccc2Cl)c1 [I-33, 4-(2-chlorophenyl)-1-[2-(isobutyrylamino)-5-methylpyridin-4-yl]-1H-pyrrole-3-carboxamide] | 42% | 1000 to 5000 nM
CC(=O)Nc1cc(-n2cc(C(N)=O)c(-c3ccccc3Cl)n2)c(Cl)cn1 [I-9, 1-(2-acetamido-5-chloropyridin-4-yl)-3-(2-chlorophenyl)-1H-pyrazole-4-carboxamide] | > 99% | 150 to 1000 nM
Cc1cnc(NC(=O)C(C)C)cc1-n1cc(-c2nc[nH]n2)c(-c2ccccc2Cl)c1 [I-26, N-{4-[3-(2-chlorophenyl)-4-(1H-1,2,4-triazol-3-yl)-1H-pyrrol-1-yl]-5-methylpyridin-2-yl}-2-methylpropanamide] | 78% | 150 to 1000 nM
CC(=O)Nc1cc(-n2cc(-c3ccccc3Cl)c(C(N)=O)n2)ccn1 [I-20, 1-(2-acetamidopyridin-4-yl)-4-(2-chlorophenyl)-1H-pyrazole-3-carboxamide] | 29% | 1000 to 5000 nM
COC(=O)Nc1cc(-n2cc(-c3nc[nH]n3)c(-c3cc(CN4CCCC4)ccc3Cl)n2)c(C)cn1 [I-61, methyl (4-{3-[2-chloro-5-(pyrrolidin-1-ylmethyl)phenyl]-4-(1H-1,2,4-triazol-3-yl)-1H-pyrazol-1-yl}-5-methylpyridin-2-yl)carbamate] | > 99% | –
Cc1cnc(NC(=O)C2CC2)cc1-n1cc(C(N)=O)c(-c2ccccc2Cl)n1 [I-34, 3-(2-chlorophenyl)-1-{2-[(cyclopropylcarbonyl)amino]-5-methylpyridin-4-yl}-1H-pyrazole-4-carboxamide] | 92% | 150 to 1000 nM
CC(=O)Nc1cc(-n2cc(C(N)=O)c(-c3ccc(Cl)cc3Cl)n2)ccn1 [I-13, 1-(2-acetamidopyridin-4-yl)-3-(2,4-dichlorophenyl)-1H-pyrazole-4-carboxamide] | > 99% | –
CC(=O)Nc1cc(-n2cc(-c3nnc[nH]3)c(-c3ccc(Cl)cc3Cl)n2)c(C)cn1 [I-39, N-{4-[3-(2,4-dichlorophenyl)-4-(4H-1,2,4-triazol-3-yl)-1H-pyrazol-1-yl]-5-methylpyridin-2-yl}acetamide] | > 99% | < 50 nM
NC(=O)c1cn(-c2ccnc(NCCc3ccc(O)cc3)n2)nc1-c1ccccc1Cl [I-43, 3-(2-chlorophenyl)-1-(2-{[2-(4-hydroxyphenyl)ethyl]amino}pyrimidin-4-yl)-1H-pyrazole-4-carboxamide] | 27% | 1000 to 5000 nM
CC(=O)Nc1cc(-n2cc(-c3nc[nH]n3)c(-c3ccccc3C#N)n2)c(C)cn1 [I-52, N-{4-[3-(2-cyanophenyl)-4-(1H-1,2,4-triazol-3-yl)-1H-pyrazol-1-yl]-5-methylpyridin-2-yl}acetamide] | > 99% | –
CC(=O)Nc1cc(-n2cc(-c3nc[nH]n3)c(-c3ccccc3Cl)c2)c(C)cn1 [I-31, N-{4-[3-(2-chlorophenyl)-4-(1H-1,2,4-triazol-3-yl)-1H-pyrrol-1-yl]-5-methylpyridin-2-yl}acetamide] | > 99% | < 50 nM
CC(=O)Nc1cc(-n2cc(C(N)=O)c(-c3ccccc3Cl)n2)ccn1 [I-8, 1-(2-acetamidopyridin-4-yl)-3-(2-chlorophenyl)-1H-pyrazole-4-carboxamide] | > 99% | –
CC(=O)Nc1cc(-n2cc(-c3ccccc3)c(-c3nnc[nH]3)c2)c(C)cn1 [I-53, N-{5-methyl-4-[3-phenyl-4-(4H-1,2,4-triazol-3-yl)-1H-pyrrol-1-yl]pyridin-2-yl}acetamide] | 81% | 150 to 1000 nM

Compound | inhibition at 1.11 µM | IC50
Cc1cnc(N)cc1-n1cc(-c2nnc[nH]2)c(-c2ccccc2Cl)n1 [I-108, 4-[3-(2-chlorophenyl)-4-(4H-1,2,4-triazol-3-yl)-1H-pyrazol-1-yl]-5-methylpyridin-2-amine] | 10% | 1000 to 5000 nM
CC(=O)Nc1cc(-n2cc(-c3ccccc3Cl)c(-c3nnc[nH]3)n2)ccn1 [I-1, N-{4-[4-(2-chlorophenyl)-3-(1H-1,2,4-triazol-3-yl)-1H-pyrazol-1-yl]pyridin-2-yl}acetamide] | 98% | 150 to 1000 nM
CCc1ccccc1-c1nn(-c2cc(NC(C)=O)ncc2C)cc1-c1nc[nH]n1 [I-57, N-{4-[3-(2-ethylphenyl)-4-(1H-1,2,4-triazol-3-yl)-1H-pyrazol-1-yl]-5-methylpyridin-2-yl}acetamide] | 94% | 150 to 1000 nM
COC(=O)Nc1cc(-n2cc(C(N)=O)c(-c3ccccc3Cl)c2)c(Cl)cn1 [I-51, methyl {4-[3-carbamoyl-4-(2-chlorophenyl)-1H-pyrrol-1-yl]-5-chloropyridin-2-yl}carbamate] | 85% | –
Cc1cnc(NC(=O)C2CC2)cc1-n1cc(-c2nc[nH]n2)c(-c2ccccc2Cl)n1 [I-46, N-{4-[3-(2-chlorophenyl)-4-(1H-1,2,4-triazol-3-yl)-1H-pyrazol-1-yl]-5-methylpyridin-2-yl}cyclopropanecarboxamide] | > 99% | < 50 nM
Cc1cnc(NC(=O)C2CC2)cc1-n1cc(C(N)=O)c(-c2ccccc2Cl)c1 [I-40, 4-(2-chlorophenyl)-1-{2-[(cyclopropylcarbonyl)amino]-5-methylpyridin-4-yl}-1H-pyrrole-3-carboxamide] | > 99% | < 50 nM
CC(=O)Nc1cc(-n2cc(C(N)=O)c(-c3ccccc3Cl)c2)c(Cl)cn1 [I-37, 1-(2-acetamido-5-chloropyridin-4-yl)-4-(2-chlorophenyl)-1H-pyrrole-3-carboxamide] | 88% | 150 to 1000 nM
COCCOC(=O)Nc1cc(-n2cc(-c3nc[nH]n3)c(-c3ccccc3Cl)c2)c(C)cn1 [I-78, 2-methoxyethyl {4-[3-(2-chlorophenyl)-4-(1H-1,2,4-triazol-3-yl)-1H-pyrrol-1-yl]-5-methylpyridin-2-yl}carbamate] | > 99% | < 50 nM
Cc1cnc(NC(=O)C2CC2)cc1-n1cc(-c2ncc[nH]2)c(-c2ccccc2Cl)n1 [I-60, N-{4-[3-(2-chlorophenyl)-4-(1H-imidazol-2-yl)-1H-pyrazol-1-yl]-5-methylpyridin-2-yl}cyclopropanecarboxamide] | > 99% | < 50 nM
CC(=O)Nc1cc(-n2cc(-c3nc[nH]n3)c(-c3ccccc3Cl)n2)c(F)cn1 [I-44, N-{4-[3-(2-chlorophenyl)-4-(1H-1,2,4-triazol-3-yl)-1H-pyrazol-1-yl]-5-fluoropyridin-2-yl}acetamide] | > 99% | < 50 nM
CC(=O)Nc1cc(-n2cc(-c3nc[nH]n3)c(-c3ccccc3SC(F)(F)F)n2)c(C)cn1 [I-59, N-{5-methyl-4-[4-(1H-1,2,4-triazol-3-yl)-3-{2-[(trifluoromethyl)sulfanyl]phenyl}-1H-pyrazol-1-yl]pyridin-2-yl}acetamide] | 75% | 150 to 1000 nM
Cc1cnc(N)cc1-n1cc(C(N)=O)c(-c2cc(CN3CCCC3)ccc2Cl)c1 [I-75, 1-(2-amino-5-methylpyridin-4-yl)-4-[2-chloro-5-(pyrrolidin-1-ylmethyl)phenyl]-1H-pyrrole-3-carboxamide] | 15% | 1000 to 5000 nM
CC(=O)Nc1cc(-n2cc(C(N)=O)c(-c3cc(CN4CCCC4)ccc3Cl)c2)c(C)cn1 [I-77, 1-(2-acetamido-5-methylpyridin-4-yl)-4-[2-chloro-5-(pyrrolidin-1-ylmethyl)phenyl]-1H-pyrrole-3-carboxamide] | 79% | –
Cc1cnc(NC(=O)OC2CCCCC2)cc1-n1cc(-c2nc[nH]n2)c(-c2ccccc2Cl)c1 [I-73, cyclohexyl {4-[3-(2-chlorophenyl)-4-(1H-1,2,4-triazol-3-yl)-1H-pyrrol-1-yl]-5-methylpyridin-2-yl}carbamate] | > 99% | –
CC(=O)Nc1cc(-n2cc(-c3nnc[nH]3)c(-c3ccccc3Cl)c2)ccn1 [I-22, N-{4-[3-(2-chlorophenyl)-4-(1H-1,2,4-triazol-3-yl)-1H-pyrrol-1-yl]pyridin-2-yl}acetamide] | > 99% | < 50 nM
